Measured values: BindingDB's records for patent WO2022098806 (MERCK SHARP & DOHME LLC, 2022)
“And” between values parts separate entries of the source, which are not always exact repeats. Identical values can stand only once.

Target: Mitogen-activated protein kinase kinase kinase kinase 1 (Homo sapiens, UniProt Q92918)
Assay: HPK1-SLP76 TR-FRET ASSAY

Sequence of Mitogen-activated protein kinase kinase kinase kinase 1 (Q92918 whole entry): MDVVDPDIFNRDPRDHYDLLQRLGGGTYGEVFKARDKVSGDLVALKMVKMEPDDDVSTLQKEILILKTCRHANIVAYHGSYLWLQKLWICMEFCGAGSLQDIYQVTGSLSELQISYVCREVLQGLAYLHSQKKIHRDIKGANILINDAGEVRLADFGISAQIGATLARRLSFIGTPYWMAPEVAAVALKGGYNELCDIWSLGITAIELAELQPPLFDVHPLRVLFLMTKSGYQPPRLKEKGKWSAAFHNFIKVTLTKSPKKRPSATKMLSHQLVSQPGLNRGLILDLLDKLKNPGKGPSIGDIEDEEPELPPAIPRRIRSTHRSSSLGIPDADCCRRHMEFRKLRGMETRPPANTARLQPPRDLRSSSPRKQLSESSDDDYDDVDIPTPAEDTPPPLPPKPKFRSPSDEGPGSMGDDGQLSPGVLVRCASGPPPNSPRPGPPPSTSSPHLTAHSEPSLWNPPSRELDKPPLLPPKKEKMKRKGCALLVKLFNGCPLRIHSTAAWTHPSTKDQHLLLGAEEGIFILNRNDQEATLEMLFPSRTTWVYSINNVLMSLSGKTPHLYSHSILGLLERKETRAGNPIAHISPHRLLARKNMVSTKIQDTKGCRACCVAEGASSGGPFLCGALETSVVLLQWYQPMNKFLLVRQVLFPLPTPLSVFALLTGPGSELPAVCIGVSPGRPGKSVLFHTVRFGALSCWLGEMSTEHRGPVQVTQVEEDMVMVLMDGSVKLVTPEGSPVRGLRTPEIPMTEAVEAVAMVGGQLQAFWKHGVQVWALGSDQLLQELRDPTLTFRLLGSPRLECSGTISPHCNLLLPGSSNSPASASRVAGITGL

Row | Compound | IC50
1 | Cc1c(-c2cc3nc(Nc4cnc5c(c4)CN(C)CC5)ncc3c(N)c2F)cnc2c1NCCO2 [WO2022098806, Compound 2-183] | 0.04 nM
2 | Cc1c(-c2c(F)c(N)c3cnc(Nc4cc5c(cc4F)CCN(C)C5)nc3c2Cl)cnc2c1NCCO2 [WO2022098806, Compound 2-184] | 0.09 nM
3 | CNC(=O)C(F)(F)c1ccc(Nc2ncc3c(N)c(F)c(-c4cnc5c(c4C)NCCO5)cc3n2)cc1 [WO2022098806, Compound 2-186] | 0.14 nM
4 | CNC(=O)C(C)(C)c1ccc(Nc2ncc3c(N)c(F)c(-c4cnc5c(c4C)NCCO5)cc3n2)cc1 [WO2022098806, Compound 2-187] | 0.08 nM
5 | COc1cc2c(cc1Nc1ncc3ccc(N4CC5(CCOC5)OC4=O)cc3n1)CN(C)CC2 (centres undefined) [WO2022098806, Compound 3-3] | 391 nM
6 | COc1cc2c(cc1Nc1ncc3ccc(N4CC(CO)OC4=O)cc3n1)CN(C)CC2 (centres undefined) [WO2022098806, Compound 3-4] | 9.36 nM
7 | COc1cc2c(cc1Nc1ncc3ccc(N4CC5(CCCNCC5)OC4=O)cc3n1)CN(C)CC2 (centres undefined) [WO2022098806, Compound 3-5] | 205 nM and 93 nM
8 | COc1cc2c(cc1Nc1ncc3ccc(N4CC(C)(CO)OC4=O)cc3n1)CN(C)CC2 (centres undefined) [WO2022098806, Compound 3-7] | 45 nM
9 | COc1cc2c(cc1Nc1ncc3ccc(N4CC(CN)OC4=O)cc3n1)CN(C)CC2 (centres undefined) [WO2022098806, Compound 3-11] | 82 nM
10 | CNCC1CN(c2ccc3cnc(Nc4cc5c(cc4OC)CCN(C)C5)nc3c2)C(=O)O1 (centres undefined) [WO2022098806, Compound 3-12] | 94 nM
11 | CC[C@@H]1COC(=O)N1c1ccc2cnc(Nc3cc4c(cc3OC)CCN(C)C4)nc2c1 [WO2022098806, Compound 3-13] | 1.05 nM
12 | CC[C@H]1COC(=O)N1c1ccc2cnc(Nc3cc4c(cc3OC)CCN(C)C4)nc2c1 [WO2022098806, Compound 3-14] | 25 nM
13 | CC[C@@H]1COC(=O)N1c1cc(N)c2cnc(Nc3cc4c(cc3OC)CCN(C)C4)nc2c1 [WO2022098806, Compound 3-15] | 3.24 nM
14 | CC[C@H]1COC(=O)N1c1cc(N)c2cnc(Nc3cc4c(cc3OC)CCN(C)C4)nc2c1 [WO2022098806, Compound 3-16] | 0.17 nM
15 | COc1cc2c(cc1Nc1ncc3c(N)cc(N4C(=O)OC[C@@H]4C)cc3n1)CN(C)CC2 [WO2022098806, Compound 3-17] | 0.08 nM
16 | COc1cc2c(cc1Nc1ncc3ccc(N4CCCC(CN5CCCC5=O)C4)cc3n1)CN(C)CC2 (centres undefined) [WO2022098806, Compound 3-20] | 771 nM
17 | COc1cc2c(cc1Nc1ncc3ccc(Nc4ccc5c(c4)C(=O)NCC5)cc3n1)CN(C)CC2 [WO2022098806, Compound 3-21] | 30 nM
18 | COc1cc2c(cc1Nc1ncc3ccc(NCC4CNC(=O)O4)cc3n1)CN(C)CC2 (centres undefined) [WO2022098806, Compound 3-26] | 149 nM
19 | COc1cc2c(cc1Nc1ncc3ccc(Nc4cccc(C#N)n4)cc3n1)CN(C)CC2 [WO2022098806, Compound 3-27] | 23 nM
20 | COc1cc2c(cc1Nc1ncc3ccc(Nc4cccc(CO)n4)cc3n1)CN(C)CC2 [WO2022098806, Compound 3-29] | 21 nM

Row | Compound | IC50
21 | COc1cc2c(cc1Nc1ncc3ccc(N(C)CC4CNC(=O)O4)cc3n1)CN(C)CC2 (centres undefined) [WO2022098806, Compound 3-30] | 148 nM
22 | COc1cc2c(cc1Nc1ncc3ccc(Nc4cccc(CO)c4)cc3n1)CN(C)CC2 [WO2022098806, Compound 3-31] | 29 nM
23 | COc1cc2c(cc1Nc1ncc3ccc(Nc4cccc(S(C)(=O)=O)c4)cc3n1)CN(C)CC2 [WO2022098806, Compound 3-33] | 18 nM
24 | COc1cc2c(cc1Nc1ncc3ccc(Nc4nc(S(C)(=O)=O)ccc4F)cc3n1)CN(C)CC2 [WO2022098806, Compound 3-36] | 4.18 nM
25 | COc1cc2c(cc1Nc1ncc3ccc(NCC4CCS(=O)(=O)C4)cc3n1)CN(C)CC2 (centres undefined) [WO2022098806, Compound 3-37] | 73 nM
26 | COc1cc2c(cc1Nc1ncc3ccc(NC4CCCC(O)C4)cc3n1)CN(C)CC2 (centres undefined) [WO2022098806, Compound 3-39] | 228 nM
27 | COc1cc2c(cc1Nc1ncc3ccc(NCC4CCC(=O)N4)cc3n1)CN(C)CC2 (centres undefined) [WO2022098806, Compound 3-45] | 292 nM
28 | COc1cc2c(cc1Nc1ncc3ccc(NC4CCN(C)C4=O)cc3n1)CN(C)CC2 (centres undefined) [WO2022098806, Compound 3-49] | 97 nM and 98 nM
29 | COc1cc2c(cc1Nc1ncc3ccc(N4CC(O)(C(F)(F)F)C4)cc3n1)CN(C)CC2 [WO2022098806, Compound 3-54] | 189 nM
30 | COc1cc2c(cc1Nc1ncc3ccc(NC[C@@H]4CC(=O)N(C)C4)cc3n1)CN(C)CC2 [WO2022098806, Compound 3-59] | 365 nM
31 | COc1cc2c(cc1Nc1ncc3ccc(N4CC5CCS(=O)(=O)C5C4)cc3n1)CN(C)CC2 (centres undefined) [WO2022098806, Compound 3-60] | 807 nM
32 | COc1cc2c(cc1Nc1ncc3ccc(NCC4(C)CCC4)cc3n1)CN(C)CC2 [WO2022098806, Compound 3-62] | 111 nM
33 | COc1cc2c(cc1Nc1ncc3ccc(NCC4(C)CCOC4)cc3n1)CN(C)CC2 (centres undefined) [WO2022098806, Compound 3-75] | 90 nM
34 | COc1cc(S(C)(=O)=O)ccc1Nc1ncc2c(N)cc(N3C(=O)OC[C@H]3C)cc2n1 [WO2022098806, Compound 3-76] | 0.1 nM
35 | CNC(=O)c1ccc(Nc2ncc3c(N)cc(N4C(=O)OC[C@@H]4C)cc3n2)c(OC)c1 [WO2022098806, Compound 3-79] | 0.25 nM
36 | COc1cc2c(cc1Nc1ncc3c(N)cc(Nc4cc(CO)ccn4)cc3n1)CN(C)CC2 [WO2022098806, Compound 3-80] | 2.81 nM
37 | COc1cc2c(cc1Nc1ncc3ccc(OCc4ccc(N5CCNCC5)nc4)cc3n1)CN(C)CC2 [WO2022098806, Compound 4-1] | 15 nM
38 | COc1cc2c(cc1Nc1ncc3ccc(Oc4ccc(C(=O)N5CCN(C(C)=O)CC5)cc4)cc3n1)CN(C)CC2 [WO2022098806, Compound 4-7] | 224 nM
39 | COc1cc2c(cc1Nc1ncc3ccc(Oc4ccc5c(c4)CNCC5)cc3n1)CN(C)CC2 [WO2022098806, Compound 4-9] | 2.19 nM
